From the supplement of paper PMC12325586 come the findings set out here.

This assay concerns MIA PaCa-2.
The mark [1] stands for this setting: OFD1 knockdown: no (no doxycycline).
The mark [2] stands for this setting: OFD1 knockdown: yes (Tet-on shOFD1, 100 ng/mL doxycycline).

Molecules are shown by their SMILES.

As for `NC(=O)NO` [S1896], the IC50 cell viability by setting is: under setting [1], 4.41 µM; under setting [2], 4.33 µM.
For `CC(C)C(=O)Nc1ccc([N+](=O)[O-])c(C(F)(F)F)c1` [S1908], in that order: 2.71 µM and 2.5 µM.
`CC(C)n1c(/C=C/C(O)CC(O)CC(=O)O)c(-c2ccc(F)cc2)c2ccccc21` (stereo not given) [S1909] gave an IC50 cell viability under setting [1] of 8.13 µM and an IC50 cell viability under setting [2] of 7.35 µM.
The corresponding values for `CC/C(=C(\c1ccccc1)c1ccc(OCCN(C)C)cc1)c1ccccc1` [S1972] are 42 µM and 36.7 µM.
As to `Cc1nnc(C(C)C)n1[C@H]1C[C@H]2CC[C@@H](C1)N2CC[C@H](NC(=O)C1CCC(F)(F)CC1)c1ccccc1` [S2003], the IC50 cell viability is, setting by setting: under setting [1], 11 µM; under setting [2], 10.3 µM.
Take `O=P1(N(CCCl)CCCl)NCCCO1` (stereo not given) [S2057]: the IC50 cell viability under setting [1] amounted to 20.3 µM and the IC50 cell viability under setting [2] stood at 18.6 µM.
For `C=C(c1ccc(C(=O)O)cc1)c1cc2c(cc1C)C(C)(C)CCC2(C)C` [S2098], in that order: 19.7 µM and 21.3 µM.
On to `CS(=O)(=O)CCNCc1ccc(-c2ccc3ncnc(Nc4ccc(OCc5cccc(F)c5)c(Cl)c4)c3c2)o1` [S2111], for which the IC50 cell viability reads like this: under setting [1], 9.12 µM; under setting [2], 8.03 µM.
Consider `O=C(Nc1c(Cl)cncc1Cl)c1ccc(OC(F)F)c(OCC2CC2)c1` [S2131], for which the IC50 cell viability under setting [1] was 22 µM and the IC50 cell viability under setting [2] was 20 µM.
The corresponding values for `Cc1c(C(=O)Nc2ccc(N3C[C@@H](C)O[C@@H](C)C3)nc2)cccc1-c1ccc(OC(F)(F)F)cc1` [S2151] are 3.41 µM and 3.2 µM.
Take `CC(C)C[C@H](NC(=O)CNC(=O)c1cc(Cl)ccc1Cl)B(O)O` [S2180]: the IC50 cell viability under setting [1] was determined as 45.1 µM and the IC50 cell viability under setting [2] was found to be 39.6 µM.
Consider `COCCCOc1cc(C[C@@H](C[C@H](N)[C@@H](O)C[C@H](C(=O)NCC(C)(C)C(N)=O)C(C)C)C(C)C)ccc1OC` [S2199], for which the IC50 cell viability by setting is: under setting [1], 4.3 µM; under setting [2], 3.52 µM.
For `C[C@]12CCC(=O)C(O)=C1CC[C@@H]1[C@@H]2CC[C@]2(C)C(=O)CC[C@@H]12` [S2208], in that order: 11 µM and 10.4 µM.
With `FC(F)(F)c1ccc(/C=C/c2nc(COc3ccc(CCCCn4ccnn4)cc3)co2)cc1` [S2216], the IC50 cell viability was found to be 41.1 µM under setting [1] and 37.6 µM under setting [2].
Consider `CCc1c2c(nc3ccc(OC(=O)N4CCC(N5CCCCC5)CC4)cc13)-c1cc3c(c(=O)n1C2)COC(=O)[C@]3(O)CC` [S2217], for which the IC50 cell viability is 43.2 µM under setting [1] and 47.2 µM under setting [2].
For `CC[C@H](Nc1ncnc2[nH]cnc12)c1nc2cccc(F)c2c(=O)n1-c1ccccc1` [S2226], the IC50 cell viability worked out at 22.7 µM under setting [1] and 24.4 µM under setting [2].
For `Cc1cccc(-c2nn3c(c2-c2ccnc4ccc(C(N)=O)cc24)CCC3)n1` [S2230], in that order: 3.61 µM and 3.02 µM.
Turning to `CC[C@@H]1C(=O)N(C)c2cnc(Nc3ccc(C(=O)N[C@H]4CC[C@H](N5CCN(CC6CC6)CC5)CC4)cc3OC)nc2N1C(C)C` [S2235], the IC50 cell viability under setting [1] is 13.3 µM and the IC50 cell viability under setting [2] stood at 12.1 µM.
Take `O=C(O)c1ccc2c(c1)nc(Nc1cccc(Cl)c1)c1ccncc12` [S2248]: the IC50 cell viability stood at 4.02 µM under setting [1] and 3.69 µM under setting [2].
Regarding `CN1CCN(C2=Nc3cc(Cl)ccc3Nc3ccccc32)CC1` [S2459], the IC50 cell viability was 18.9 µM under setting [1] and 18 µM under setting [2].
Turning to `Cc1ccc(NC(=O)c2ccc(CN3CCN(C)CC3)cc2)cc1Nc1nccc(-c2cccnc2)n1` [S2475], the IC50 cell viability reads like this: under setting [1], 6.98 µM; under setting [2], 6.56 µM.
As to `CCC(C)n1ncn(-c2ccc(N3CCN(c4ccc(OCC5COC(Cn6cncn6)(c6ccc(Cl)cc6Cl)O5)cc4)CC3)cc2)c1=O` (stereo not given) [S2476], the IC50 cell viability by setting is: under setting [1], 22.1 µM; under setting [2], 23 µM.
In turn, `O=C1c2c(O)ccc(O)c2C(=O)c2c(NCCNCCO)ccc(NCCNCCO)c21` [S2485] yielded an IC50 cell viability under setting [1] of 3.55 µM and an IC50 cell viability under setting [2] of 3.77 µM.
Turning to `COc1c(C)c2c(c(O)c1C/C=C(\C)CCC(=O)O)C(=O)OC2` [S2487], the IC50 cell viability runs as follows: under setting [1], 10.9 µM; under setting [2], 9.95 µM.
The corresponding values for `CC(C)(C)NCC(O)c1ccc(O)c(CO)c1` (stereo not given) [S2507] are 4.57 µM and 4.1 µM.
In the case of `Cc1cccc(C)c1NC1=NCCCS1` [S2516], the IC50 cell viability amounted to 15.3 µM under setting [1] and 14.1 µM under setting [2].
On to `Cc1ccc(O)c([C@H](CCN(C(C)C)C(C)C)c2ccccc2)c1` [S2550], for which the IC50 cell viability reads like this: under setting [1], 10.2 µM; under setting [2], 9.8 µM.
Consider `CN(CCOc1ccc(CC2SC(=O)NC2=O)cc1)c1ccccn1` (stereo not given) [S2556], for which the IC50 cell viability by setting is: under setting [1], 8.62 µM; under setting [2], 7.63 µM.
As to `CC(=O)O[C@]1(C(C)=O)CC[C@H]2[C@@H]3C[C@H](C)C4=CC(=O)CC[C@]4(C)[C@H]3CC[C@@]21C` [S2567], the IC50 cell viability runs as follows: under setting [1], 10.2 µM; under setting [2], 8.9 µM.
For `CCc1ccc(CCOc2ccc(CC3SC(=O)NC3=O)cc2)nc1` (stereo not given) [S2590], in that order: 2.72 µM and 3.16 µM.
For `Cc1ccccc1C(=O)Nc1ccc(C(=O)N2CCCC(O)c3cc(Cl)ccc32)c(C)c1` (stereo not given) [S2593], in that order: 3.68 µM and 3.47 µM.
Regarding `CC#C[C@]1(O)CC[C@H]2[C@@H]3CCC4=CC(=O)CCC4=C3[C@@H](c3ccc(N(C)C)cc3)C[C@@]21C` [S2606], the IC50 cell viability runs as follows: under setting [1], 9.08 µM; under setting [2], 8.71 µM.
As for `COc1ncc(-c2ccc3nccc(-c4ccnnc4)c3c2)cc1NS(=O)(=O)c1ccc(F)cc1F` [S2658], the IC50 cell viability worked out at 8.98 µM under setting [1] and 8.74 µM under setting [2].
Turning to `CC(=O)Nc1cccc(-n2c(=O)n(C3CC3)c(=O)c3c(Nc4ccc(I)cc4F)n(C)c(=O)c(C)c32)c1` [S2673], the IC50 cell viability runs as follows: under setting [1], 23.9 µM; under setting [2], 21.9 µM.
As to `C=CC(=O)N1CCC[C@@H](n2nc(-c3ccc(Oc4ccccc4)cc3)c3c(N)ncnc32)C1` [S2680], the IC50 cell viability under setting [1] amounted to 53.1 µM and the IC50 cell viability under setting [2] was 52.4 µM.
As for `COc1cc2ncnc(Nc3ccc(F)c(Cl)c3)c2cc1NC(=O)/C=C/CN1CCCCC1` [S2727], the IC50 cell viability was 30.1 µM under setting [1] and 29.6 µM under setting [2].
For the compound `CC1(COc2ccc3c(c2)ncn3-c2ccc3cccc(N4CCC(N)CC4)c3n2)COC1` [S2730], the IC50 cell viability turned out to be 13.2 µM under setting [1] and 12.9 µM under setting [2].
As for `Cc1cnc(Nc2ccc(OCCN3CCCC3)cc2)nc1Nc1cccc(S(=O)(=O)NC(C)(C)C)c1` [S2736], the IC50 cell viability is, setting by setting: under setting [1], 14.5 µM; under setting [2], 13.5 µM.
On to `Cc1ccc([C@@H]2O[C@H](CO)[C@@H](O)[C@H](O)[C@H]2O)cc1Cc1ccc(-c2ccc(F)cc2)s1` [S2760], for which the IC50 cell viability is, setting by setting: under setting [1], 21.9 µM; under setting [2], 21.6 µM.
Compound `C[C@@H]1CCN(C(=O)CC#N)C[C@@H]1N(C)c1ncnc2[nH]ccc12` [S2789] had an IC50 cell viability under setting [1] of 2.19 µM and an IC50 cell viability under setting [2] of 2.38 µM.
For `CN1CCN(c2nc(C3=C(c4c[nH]c5ccccc45)C(=O)NC3=O)c3ccccc3n2)CC1` [S2791], the IC50 cell viability worked out at 22.1 µM under setting [1] and 20.1 µM under setting [2].
The corresponding values for `O=c1sn(-c2cccc3ccccc23)c(=O)n1Cc1ccccc1` [S2823] are 17.9 µM and 17.7 µM.
As to `N#CC[C@H](C1CCCC1)n1cc(-c2ncnc3[nH]ccc23)cn1` [S2902], the IC50 cell viability under setting [1] is 19.6 µM and the IC50 cell viability under setting [2] came to 17.9 µM.
Consider `Cc1cc(C)c2c(c1)[C@@H](N(Cc1cc(C(F)(F)F)cc(C(F)(F)F)c1)c1nnn(C)n1)CCCN2C[C@H]1CC[C@H](C(=O)O)CC1` [S2925], for which the IC50 cell viability stood at 7.47 µM under setting [1] and 5.94 µM under setting [2].
The compound `Cc1ccc(Nc2nccc(N(C)c3ccc4c(C)n(C)nc4c3)n2)cc1S(N)(=O)=O` [S3012] came in with an IC50 cell viability under setting [1] of 14 µM and an IC50 cell viability under setting [2] of 12.6 µM.
For `Cc1c(C(=O)NN2CCCCC2)nn(-c2ccc(Cl)cc2Cl)c1-c1ccc(Cl)cc1` [S3021], in that order: 19 µM and 17.7 µM.
On to `COc1cccc2c1C(=O)c1c(O)c3c(c(O)c1C2=O)C[C@@](O)(C(C)=O)C[C@@H]3O[C@H]1C[C@H](N)[C@H](O)[C@H](C)O1` [S3035], for which the IC50 cell viability by setting is: under setting [1], 3.36 µM; under setting [2], 3.39 µM.
Turning to `CC(=O)OCC(=O)[C@@]1(O)[C@H](C)C[C@H]2[C@@H]3CCC4=CC(=O)C=C[C@]4(C)[C@@]3(F)[C@@H](O)C[C@@]21C` [S3124], the IC50 cell viability is, setting by setting: under setting [1], 51.2 µM; under setting [2], 49.6 µM.
Regarding `CCN(CC)C(=O)/C(C#N)=C/c1cc(O)c(O)c([N+](=O)[O-])c1` [S3147], the IC50 cell viability is, setting by setting: under setting [1], 3.57 µM; under setting [2], 3.44 µM.
For `O=C1CN2Cc3c(ccc(Cl)c3Cl)N=C2N1` [S3172], in that order: 8.82 µM and 8.26 µM.
The corresponding values for `COc1cc2nccc(Oc3ccc(NC(=O)C4(C(=O)Nc5ccc(F)cc5)CC4)cc3)c2cc1OC` [S4001] are 5.3 µM and 4.97 µM.
As to `N[C@@H](CC(=O)N1CCn2c(nnc2C(F)(F)F)C1)Cc1cc(F)c(F)cc1F` [S4002], the IC50 cell viability is, setting by setting: under setting [1], 21.9 µM; under setting [2], 21.2 µM.
For `Nc1nc(CC(=O)Nc2ccc(CCNC[C@H](O)c3ccccc3)cc2)cs1` [S4009], the IC50 cell viability was determined as 27 µM under setting [1] and 23.9 µM under setting [2].
Consider `Nc1ccc(C(=O)O)c(O)c1` [S4073], for which the IC50 cell viability runs as follows: under setting [1], 8.25 µM; under setting [2], 7.73 µM.
As for `CCC1=C[C@@H]2CN(C1)Cc1c([nH]c3ccccc13)[C@@](C(=O)OC)(c1cc3c(cc1OC)N(C)[C@H]1[C@@](O)(C(=O)OC)[C@H](OC(C)=O)[C@]4(CC)C=CCN5CC[C@]31[C@@H]54)C2` [S4269], the IC50 cell viability by setting is: under setting [1], 3.46 µM; under setting [2], 3.12 µM.
